Values after ≈ are worked out from the molar mass of the structure shown. Blank lines part the entries; values can stand above or below the compound they belong to.
What was measured:
Candida albicans [1] = experiment: Antifungal activity against Candida albicans C127-2000 after 48 hrs; type: functional
Cryptococcus neoformans [2] = experiment: Antifungal activity against […] IM 031631 after 48 hrs; type: functional; details: Cryptococcus neoformans, 48 h
Cryptococcus neoformans [3] = experiment: Antifungal activity against Cryptococcus neoformans ATCC 32264 after 48 hrs; type: functional; details: ATCC 32264, 48 h
Cryptococcus neoformans [4] = experiment: Antifungal activity against […] IM 052470 after 48 hrs; type: functional
Trichophyton benhamiae [5] = experiment: Antifungal activity against Trichophyton mentagrophytes C364 after 48 hrs; type: functional, Arthroderma benhamiae
Aspergillus flavus = experiment: Antifungal activity against Aspergillus flavus ATCC 9170 after 48 hrs; type: functional; details: ATCC 9170, 48 h
Trichophyton benhamiae [6] = experiment: Antifungal activity against Trichophyton mentagrophytes C108 after 48 hrs; type: functional, Arthroderma benhamiae
Candida albicans [7] = experiment: Antifungal activity against Candida albicans C126-2000 after 48 hrs; type: functional
Aspergillus fumigatus = experiment: Antifungal activity against Aspergillus fumigatus ATCC 26934 after 48 hrs; type: functional; details: ATCC 26934, 48 h
Torulaspora delbrueckii = experiment: Antifungal activity against Candida coliculosa C122-2000 after 48 hrs; type: functional
Aspergillus niger = experiment: Antifungal activity against Aspergillus niger ATCC 9029 after 48 hrs; type: functional; details: ATCC 9029, 48 h
Saccharomyces cerevisiae = experiment: Antifungal activity against Saccharomyces cerevisiae ATCC 9763 after 48 hrs; type: functional; details: ATCC 9763, 48 h
Candida albicans [8] = experiment: Antifungal activity against Candida albicans C130-2000 after 48 hrs; type: functional
Candida parapsilosis = experiment: Antifungal activity against Candida parapsilosis C124-2000 after 48 hrs; type: functional; details: Lodderomyces parapsilosis
Cryptococcus neoformans [9] = experiment: Antifungal activity against […] ATCC 32264 after 48 hrs; type: functional; details: ATCC 32264, 48 h
Pichia kudriavzevii = experiment: Antifungal activity against Candida krusei C117-2000 after 48 hrs; type: functional
Cryptococcus neoformans [10] = experiment: Antifungal activity against […] IM 983036 after 48 hrs; type: functional
Candida tropicalis = experiment: Antifungal activity against Candida tropicalis C131-1997 after 48 hrs; type: functional
Candida albicans [11] = experiment: Antifungal activity against Candida albicans C128-2000 after 48 hrs; type: functional
Candida albicans [12] = experiment: Antifungal activity against Candida albicans ATCC 10231 after 48 hrs; type: functional; details: ATCC 10231, 48 h
Trichophyton benhamiae [13] = experiment: Antifungal activity against Trichophyton mentagrophytes ATCC 9972 after 48 hrs; type: functional, Arthroderma benhamiae; details: ATCC 9972, 48 h
Trichophyton benhamiae [14] = experiment: Antifungal activity against Trichophyton mentagrophytes C943 after 48 hrs; type: functional, Arthroderma benhamiae
Cryptococcus neoformans [15] = experiment: Antifungal activity against […] IM 972724 after 48 hrs; type: functional
Trichophyton benhamiae [16] = experiment: Antifungal activity against Trichophyton mentagrophytes C539 after 48 hrs; type: functional, Arthroderma benhamiae
Cryptococcus neoformans [17] = experiment: Antifungal activity against […] IM 00319 after 48 hrs; type: functional
Candida albicans [18] = experiment: Antifungal activity against Candida albicans C129-2000 after 48 hrs; type: functional
Kluyveromyces marxianus = experiment: Antifungal activity against Candida kefyr C123-2000 after 48 hrs; type: functional
Nakaseomyces glabratus = experiment: Antifungal activity against Candida glabrata C115-2000 after 48 hrs; type: functional
Cryptococcus neoformans [19] = experiment: Antifungal activity against […] IM 031706 after 48 hrs; type: functional
Cryptococcus neoformans [20] = experiment: Antifungal activity against […] IM 042074 after 48 hrs; type: functional
Cryptococcus neoformans [21] = experiment: Antifungal activity against […] IM 972751 after 48 hrs; type: functional
Nannizzia gypsea = experiment: Antifungal activity against Microsporum gypseum C115 after 48 hrs; type: functional
Cryptococcus neoformans [22] = experiment: Antifungal activity against […] IM 961951 after 48 hrs; type: functional
Trichophyton rubrum = experiment: Antifungal activity against Trichophyton rubrum C113 after 48 hrs; type: functional
Cryptococcus neoformans [23] = experiment: Antifungal activity against Candida neoformans IM 983040 after 48 hrs; type: functional
Clavispora lusitaniae = experiment: Antifungal activity against Candida lusitaniae C131-2000 after 48 hrs; type: functional
Candida albicans [24] = experiment: Antifungal activity against Candida albicans C125-2000 after 48 hrs; type: functional
Trichophyton benhamiae [25] = experiment: Antifungal activity against Trichophyton mentagrophytes C738 after 48 hrs; type: functional, Arthroderma benhamiae

MIC (Candida albicans [1]): 15.6 mg/L (≈ 53.9 µM)
MIC50 (Candida albicans [1]): 7.8 mg/L (≈ 27 µM)
MIC80 (Candida albicans [1]): 15.6 mg/L (≈ 53.9 µM)
MIC (Cryptococcus neoformans [2]): 7.8 mg/L (≈ 27 µM)
MIC50 (Cryptococcus neoformans [2]): 3.9 mg/L (≈ 13.5 µM)
MIC80 (Cryptococcus neoformans [2]): 7.8 mg/L (≈ 27 µM)
MIC (Cryptococcus neoformans [3]): 3.9 mg/L (≈ 13.5 µM)
MIC (Cryptococcus neoformans [4]): 7.8 mg/L (≈ 27 µM)
MIC50 (Cryptococcus neoformans [4]): 1.9 mg/L (≈ 6.57 µM)
MIC80 (Cryptococcus neoformans [4]): 7.8 mg/L (≈ 27 µM)
MIC (Trichophyton benhamiae [5]): 0.97 mg/L (≈ 3.35 µM)
MIC (Aspergillus flavus): 62.5 mg/L (≈ 216 µM)
MIC (Trichophyton benhamiae [6]): 1.95 mg/L (≈ 6.74 µM)
MIC (Candida albicans [7]): 15.6 mg/L (≈ 53.9 µM)
MIC50 (Candida albicans [7]): 15.6 mg/L (≈ 53.9 µM)
MIC80 (Candida albicans [7]): 15.6 mg/L (≈ 53.9 µM)
MIC (Aspergillus fumigatus): 125 mg/L (≈ 432 µM)
MIC (Torulaspora delbrueckii): 31.2 mg/L (≈ 108 µM)
MIC50 (Torulaspora delbrueckii): 15.6 mg/L (≈ 53.9 µM)
MIC80 (Torulaspora delbrueckii): 31.2 mg/L (≈ 108 µM)
MIC (Aspergillus niger): 62.5 mg/L (≈ 216 µM)
MIC (Saccharomyces cerevisiae): 15.6 mg/L (≈ 53.9 µM)
MIC (Candida albicans [8]): 15.6 mg/L (≈ 53.9 µM)
MIC50 (Candida albicans [8]): 7.8 mg/L (≈ 27 µM)
MIC80 (Candida albicans [8]): 15.6 mg/L (≈ 53.9 µM)
MIC (Candida parapsilosis): 31.2 mg/L (≈ 108 µM)
MIC50 (Candida parapsilosis): 3.9 mg/L (≈ 13.5 µM)
MIC80 (Candida parapsilosis): 31.2 mg/L (≈ 108 µM)
MIC (Cryptococcus neoformans [9]): 3.9 mg/L (≈ 13.5 µM)
MIC50 (Cryptococcus neoformans [9]): 3.9 mg/L (≈ 13.5 µM)
MIC80 (Cryptococcus neoformans [9]): 3.9 mg/L (≈ 13.5 µM)
MIC (Pichia kudriavzevii): 15.6 mg/L (≈ 53.9 µM)
MIC50 (Pichia kudriavzevii): 7.8 mg/L (≈ 27 µM)
MIC80 (Pichia kudriavzevii): 15.6 mg/L (≈ 53.9 µM)
MIC (Cryptococcus neoformans [10]): 7.8 mg/L (≈ 27 µM)
MIC50 (Cryptococcus neoformans [10]): 1.9 mg/L (≈ 6.57 µM)
MIC80 (Cryptococcus neoformans [10]): 7.8 mg/L (≈ 27 µM)
MIC (Candida tropicalis): 15.6 mg/L (≈ 53.9 µM)
MIC50 (Candida tropicalis): 7.8 mg/L (≈ 27 µM)
MIC80 (Candida tropicalis): 15.6 mg/L (≈ 53.9 µM)
MIC (Candida albicans [11]): 15.6 mg/L (≈ 53.9 µM)
MIC50 (Candida albicans [11]): 15.6 mg/L (≈ 53.9 µM)
MIC80 (Candida albicans [11]): 15.6 mg/L (≈ 53.9 µM)
MIC (Candida albicans [12]): 15.6 mg/L (≈ 53.9 µM)
MIC (Trichophyton benhamiae [13]): 3.9 mg/L (≈ 13.5 µM)
MIC (Trichophyton benhamiae [14]): 0.97 mg/L (≈ 3.35 µM)
MIC (Cryptococcus neoformans [15]): 7.8 mg/L (≈ 27 µM)
MIC50 (Cryptococcus neoformans [15]): 1.9 mg/L (≈ 6.57 µM)
MIC80 (Cryptococcus neoformans [15]): 7.8 mg/L (≈ 27 µM)
MIC (Trichophyton benhamiae [16]): 1.95 mg/L (≈ 6.74 µM)
MIC (Cryptococcus neoformans [17]): 7.8 mg/L (≈ 27 µM)
MIC50 (Cryptococcus neoformans [17]): 3.9 mg/L (≈ 13.5 µM)
MIC80 (Cryptococcus neoformans [17]): 3.9 mg/L (≈ 13.5 µM)
MIC (Candida albicans [18]): 31.2 mg/L (≈ 108 µM)
MIC50 (Candida albicans [18]): 15.6 mg/L (≈ 53.9 µM)
MIC80 (Candida albicans [18]): 31.2 mg/L (≈ 108 µM)
MIC (Kluyveromyces marxianus): 7.8 mg/L (≈ 27 µM)
MIC50 (Kluyveromyces marxianus): 3.9 mg/L (≈ 13.5 µM)
MIC80 (Kluyveromyces marxianus): 7.8 mg/L (≈ 27 µM)
MIC (Nakaseomyces glabratus): 3.9 mg/L (≈ 13.5 µM)
MIC50 (Nakaseomyces glabratus): 3.9 mg/L (≈ 13.5 µM)
MIC80 (Nakaseomyces glabratus): 3.9 mg/L (≈ 13.5 µM)
MIC (Cryptococcus neoformans [19]): 7.8 mg/L (≈ 27 µM)
MIC50 (Cryptococcus neoformans [19]): 7.8 mg/L (≈ 27 µM)
MIC80 (Cryptococcus neoformans [19]): 7.8 mg/L (≈ 27 µM)
MIC (Cryptococcus neoformans [20]): 7.8 mg/L (≈ 27 µM)
MIC50 (Cryptococcus neoformans [20]): 1.9 mg/L (≈ 6.57 µM)
MIC80 (Cryptococcus neoformans [20]): 7.8 mg/L (≈ 27 µM)
MIC (Cryptococcus neoformans [21]): 7.8 mg/L (≈ 27 µM)
MIC50 (Cryptococcus neoformans [21]): 1.9 mg/L (≈ 6.57 µM)
MIC80 (Cryptococcus neoformans [21]): 3.9 mg/L (≈ 13.5 µM)
MIC (Nannizzia gypsea): 15.6 mg/L (≈ 53.9 µM)
MIC (Cryptococcus neoformans [22]): 7.8 mg/L (≈ 27 µM)
MIC50 (Cryptococcus neoformans [22]): 1.9 mg/L (≈ 6.57 µM)
MIC80 (Cryptococcus neoformans [22]): 3.9 mg/L (≈ 13.5 µM)
MIC (Trichophyton rubrum): 15.6 mg/L (≈ 53.9 µM)
MIC (Cryptococcus neoformans [23]): 7.8 mg/L (≈ 27 µM)
MIC50 (Cryptococcus neoformans [23]): 1.9 mg/L (≈ 6.57 µM)
MIC80 (Cryptococcus neoformans [23]): 7.8 mg/L (≈ 27 µM)
MIC (Clavispora lusitaniae): 31.2 mg/L (≈ 108 µM)
MIC50 (Clavispora lusitaniae): 15.6 mg/L (≈ 53.9 µM)
MIC80 (Clavispora lusitaniae): 31.2 mg/L (≈ 108 µM)
MIC (Candida albicans [24]): 31.2 mg/L (≈ 108 µM)
MIC50 (Candida albicans [24]): 15.6 mg/L (≈ 53.9 µM)
MIC80 (Candida albicans [24]): 31.2 mg/L (≈ 108 µM)
MIC (Trichophyton benhamiae [25]): 1.95 mg/L (≈ 6.74 µM)
Structure (SMILES): O=C1NC(=S)S/C1=C\c1ccc(C(F)(F)F)cc1
MFC (Candida albicans [1]): 31.2 mg/L (≈ 108 µM)
MFC (Cryptococcus neoformans [2]; read-out: MFC): 15.6 mg/L (≈ 53.9 µM)
MFC (Cryptococcus neoformans [4]): 12.5 mg/L (≈ 43.2 µM)
MFC (Candida albicans [7]): 31.2 mg/L (≈ 108 µM)
MFC (Torulaspora delbrueckii): 62.5 mg/L (≈ 216 µM)
MFC (Candida albicans [8]): 62.5 mg/L (≈ 216 µM)
MFC (Candida parapsilosis): 62.5 mg/L (≈ 216 µM)
MFC (Cryptococcus neoformans [9]): 7.8 mg/L (≈ 27 µM)
MFC (Pichia kudriavzevii): 31.2 mg/L (≈ 108 µM)
MFC (Cryptococcus neoformans [10]): 7.8 mg/L (≈ 27 µM)
MFC (Candida tropicalis): 31.2 mg/L (≈ 108 µM)
MFC (Candida albicans [11]): 31.2 mg/L (≈ 108 µM)
MFC (Cryptococcus neoformans [15]): 7.8 mg/L (≈ 27 µM)
MFC (Cryptococcus neoformans [17]): 7.8 mg/L (≈ 27 µM)
MFC (Candida albicans [18]): 31.2 mg/L (≈ 108 µM)
MFC (Kluyveromyces marxianus): 15.6 mg/L (≈ 53.9 µM)
MFC (Nakaseomyces glabratus): 15.6 mg/L (≈ 53.9 µM)
MFC (Cryptococcus neoformans [19]): 31.2 mg/L (≈ 108 µM)
MFC (Cryptococcus neoformans [20]): 7.8 mg/L (≈ 27 µM)
MFC (Cryptococcus neoformans [21]): 7.8 mg/L (≈ 27 µM)
MFC (Cryptococcus neoformans [22]): 7.8 mg/L (≈ 27 µM)
MFC (Cryptococcus neoformans [23]): 15.6 mg/L (≈ 53.9 µM)
MFC (Clavispora lusitaniae): 62.5 mg/L (≈ 216 µM)
MFC (Candida albicans [24]): 62.5 mg/L (≈ 216 µM)

MIC (Cryptococcus neoformans [3]): > 250 mg/L
MIC (Aspergillus flavus): > 250 mg/L
MIC (Aspergillus fumigatus): > 250 mg/L
MIC (Aspergillus niger): > 250 mg/L
MIC (Saccharomyces cerevisiae): > 250 mg/L
MIC (Candida albicans [12]): > 250 mg/L
MIC (Trichophyton benhamiae [13]): > 250 mg/L
MIC (Nannizzia gypsea): > 250 mg/L
MIC (Trichophyton rubrum): > 250 mg/L
Structure (SMILES): O=C1NC(=S)S/C1=C\[n+]1ccccc1
